For 33 compounds, IC50 results are on record in patent publication US12091425B2 (AMGEN INC., priority 2016, dated 2024).

The target of assay [1] is T1, Mcl-1/Bim interaction, recombinant human Mcl-1 (171-327) (Homo sapiens, UniProt Q07820).
T1 construct: made in house
Nature of the assay: Cell free Mcl-1: Bim Affinity Assay (Mcl-1 HTRF). Format: binding. The note with it: cell free Mcl-1:Bim TR-FRET, recombinant human Mcl-1 (171-327). The essentials:
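TR-FRET competition assay with biotinylated human Bim peptide (residues 51-76); reaction plates incubated overnight before reading. IC50 values came from duplicate data fitted to a four-parameter sigmoidal competition curve.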
(In general: TR-FRET usually uses a lanthanide donor and a delayed reading to cut background.)

In assay [2] the test system is OPM-2 human multiple myeloma cell line. Nature of the assay: Cell Viability Assay (OPM-2 10 FBS). Format: cell-based. The note with it: OPM-2 cells, 16 h, CellTiter-Glo. A digest of the protocol: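 Plated at 3000 cells/well in 10% FBS complete medium, the cells received a serial compound dilution series and incubated 16 h at 37 °C with 5% CO2. CellTiter-Glo was then added; IC50 values were fitted with a logistic 4-parameter model.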
Background: ATP-based viability assays read luminescence as a measure of living cells.

Each structure is given as a SMILES string.

T1 sequence (Q07820 171-327): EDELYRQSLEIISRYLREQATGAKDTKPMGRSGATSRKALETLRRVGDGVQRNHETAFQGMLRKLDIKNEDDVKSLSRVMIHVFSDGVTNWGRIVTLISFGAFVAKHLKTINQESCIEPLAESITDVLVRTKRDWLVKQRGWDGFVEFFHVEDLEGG

As usually defined, the IC50 is the midpoint of a concentration-inhibition curve. Take `CO[C@H]1C/C=C/[C@H](OCCN2CCOCC2)[C@@H]2CC[C@H]2CN2C[C@@]3(CCCc4cc(Cl)ccc43)COc3ccc(cc32)C(=O)NS(=O)(=O)[C@@H]1C[C@@H]1CCCO1` (single isomer, unassigned) [Example 645]: the IC50 in assay [1] came out at 0.589 nM; in assay [2], 125 nM.

With `O=C1NS(=O)(=O)[C@H](Cc2ccccc2)C/C=C/[C@H](O)[C@@H]2CC[C@H]2CN2C[C@@]3(CCCc4cc(Cl)ccc43)COc3ccc1cc32` (single isomer, unassigned) [Example 646], the IC50 in assay [1] amounted to 45.3 nM; in assay [2] it was 23700 nM.

Take `CC1CC=CC(O)C2CCC2CN2CC3(CCCc4cc(Cl)ccc43)COc3ccc(cc32)C(=O)NS(=O)(=O)C1Cc1ccccc1` (single isomer, unassigned) [Example 648]: the IC50 came to 1.45 nM in assay [1] and 154 nM in assay [2] (Homo sapiens, OPM-2, 16 h).

Turning to `COC[C@H](O)C[C@@H]1CC/C=C/[C@H](OC)[C@@H]2CC[C@H]2CN2C[C@@]3(CCCc4cc(Cl)ccc43)COc3ccc(cc32)C(=O)NS1(=O)=O` (single isomer, unassigned) [Example 651], the IC50 in assay [1] came out at 0.316 nM; in assay [2], 229 nM.

For the compound `COC[C@H](O)C[C@@H]1CC/C=C/[C@H](OC)[C@@H]2CC[C@H]2CN2C[C@@]3(CCCc4cc(Cl)ccc43)COc3ccc(cc32)C(=O)NS1(=O)=O` (single isomer, unassigned) [Example 652], the IC50 in assay [1] was determined as 2.4 nM; in assay [2], 4460 nM.

As for `C[C@H]1C/C=C/[C@H](O)[C@@H]2CC[C@H]2CN2C[C@@]3(CCCc4cc(Cl)ccc43)COc3ccc(cc32)C(=O)NS(=O)(=O)[C@@H]1c1ccccc1` (single isomer, unassigned) [Example 653], the IC50 came out at 0.722 nM in assay [1] and 371 nM in assay [2].

Consider `C[C@H]1C/C=C/[C@H](O)[C@@H]2CC[C@H]2CN2C[C@@]3(CCCc4cc(Cl)ccc43)COc3ccc(cc32)C(=O)NS(=O)(=O)[C@@H]1c1ccccc1` (single isomer, unassigned) [Example 654], for which the IC50 is 7.6 nM in assay [1] and 3510 nM in assay [2].

As for `COCC(O)CC1CCC=CC(OC)C2CCC2CN2CC3(CCCc4cc(Cl)ccc43)COc3ccc(cc32)C(=O)NS1(=O)=O` (single isomer, unassigned) [Example 658], the IC50 was found to be 0.285 nM in assay [1] and 259 nM in assay [2] (Homo sapiens, OPM-2, 16 h).

Consider `COC[C@@H](O)C[C@@H]1CC/C=C/[C@H](OC)[C@@H]2CC[C@H]2CN2C[C@@]3(CCCc4cc(Cl)ccc43)COc3ccc(cc32)C(=O)NS1(=O)=O` (single isomer, unassigned) [Example 659], for which the IC50 in assay [1] came out at 3.37 nM; in assay [2], 10900 nM.

As to `CC1CC=CC(O)C2CCC2CN2CC3(CCCc4cc(Cl)ccc43)COc3ccc(cc32)C(=O)NS(=O)(=O)C1CC(F)(F)F` (single isomer, unassigned) [Example 663], the concentration for half-maximal inhibition (IC50) in assay [1] came out at 0.312 nM; in assay [2] (Homo sapiens, OPM-2, 16 h) it was 3110 nM.

Turning to `C[C@H]1C/C=C/[C@H](O)[C@@H]2CC[C@H]2CN2C[C@@]3(CCCc4cc(Cl)ccc43)COc3ccc(cc32)C(=O)NS(=O)(=O)N1Cc1ccccn1` (single isomer, unassigned) [Example 667], the results for the IC50 in assay [1] and in assay [2] were 0.244 nM and 378 nM, respectively.

Consider `CC1CC=CC(O)C2CCC2CN2CC3(CCCc4cc(Cl)ccc43)COc3ccc(cc32)C(=O)NS(=O)(=O)N1Cc1ccccn1` (single isomer, unassigned) [Example 668], for which the IC50 in assay [1] turned out to be 17 nM; in assay [2] (Homo sapiens, OPM-2, 16 h), 11600 nM.

With `COCCO[C@H]1/C=C/C[C@H](C)[C@@H](CC(F)(F)F)S(=O)(=O)NC(=O)c2ccc3c(c2)N(C[C@@H]2CC[C@H]21)C[C@@]1(CCCc2cc(Cl)ccc21)CO3` (single isomer, unassigned) [Example 669], the IC50 in assay [1] is 1.37 nM; in assay [2], 272 nM.

Turning to `COCCO[C@H]1/C=C/C[C@H](C)[C@H](c2ccccc2)S(=O)(=O)NC(=O)c2ccc3c(c2)N(C[C@@H]2CC[C@H]21)C[C@@]1(CCCc2cc(Cl)ccc21)CO3` (single isomer, unassigned) [Example 670], the IC50 was 2.48 nM in assay [1] and 1000 nM in assay [2].

For `COCCO[C@H]1/C=C/C[C@H](C)[C@H](c2ccccc2)S(=O)(=O)NC(=O)c2ccc3c(c2)N(C[C@@H]2CC[C@H]21)C[C@@]1(CCCc2cc(Cl)ccc21)CO3` (single isomer, unassigned) [Example 671], the IC50 came to 19.8 nM in assay [1] and 5650 nM in assay [2].

Consider `COC[C@@H](O)C[C@@H]1[C@@H](C)C/C=C/[C@H](O)[C@@H]2CC[C@H]2CN2C[C@@]3(CCCc4cc(Cl)ccc43)COc3ccc(cc32)C(=O)NS1(=O)=O` (single isomer, unassigned) [Example 672], for which the IC50 came out at 0.193 nM in assay [1] and 286 nM in assay [2].

Take `COC[C@@H](O)C[C@@H]1[C@@H](C)C/C=C/[C@H](O)[C@@H]2CC[C@H]2CN2C[C@@]3(CCCc4cc(Cl)ccc43)COc3ccc(cc32)C(=O)NS1(=O)=O` (single isomer, unassigned) [Example 673]: the IC50 in assay [1] turned out to be 0.183 nM; in assay [2], 445 nM.

Turning to `O=C1NS(=O)(=O)C(c2ccccc2)CC/C=C/[C@H](O)[C@@H]2CC[C@H]2CN2C[C@@]3(CCCc4cc(Cl)ccc43)COc3ccc1cc32` (single isomer, unassigned) [Example 674], the IC50 worked out at 8.2 nM in assay [1] and 1090 nM in assay [2].

`O=C1NS(=O)(=O)C(c2ccccc2)CC/C=C/[C@H](O)[C@@H]2CC[C@H]2CN2C[C@@]3(CCCc4cc(Cl)ccc43)COc3ccc1cc32` (single isomer, unassigned) [Example 675]: the figures for the IC50 in assay [1] and in assay [2] were 0.437 nM and 480 nM, respectively.

Regarding `CC1C(C2CC2)CC=CC(O)C2CCC2CN2CC3(CCCc4cc(Cl)ccc43)COc3ccc(cc32)C(=O)NS1(=O)=O` (single isomer, unassigned) [Example 677], the IC50 in assay [1] was determined as 9.57 nM; in assay [2] (Homo sapiens, OPM-2, 16 h) it was 3550 nM.

For `COC[C@@H](O)C[C@@H]1[C@@H](C)C/C=C/[C@H](OC)[C@@H]2CC[C@H]2CN2C[C@@]3(CCCc4cc(Cl)ccc43)COc3ccc(cc32)C(=O)NS1(=O)=O` (single isomer, unassigned) [Example 679], the results for the IC50 in assay [1] and in assay [2] were 0.429 nM and 205 nM, respectively.

As to `O=C1NS(=O)(=O)C[C@@H](C2CC2)C/C=C/[C@H](O)[C@@H]2CC[C@H]2CN2C[C@@]3(CCCc4cc(Cl)ccc43)COc3ccc1cc32` (single isomer, unassigned) [Example 683], the IC50 is 2.31 nM in assay [1] and 2090 nM in assay [2].

As to `CC[C@H]1C/C=C/[C@H](O)[C@@H]2CC[C@H]2CN2C[C@@]3(CCCc4cc(Cl)ccc43)COc3ccc(cc32)C(=O)NS(=O)(=O)N1` (single isomer, unassigned) [Example 685], the IC50 was 2.66 nM in assay [1] and 7180 nM in assay [2].

Consider `CC[C@H]1C/C=C/[C@H](O)[C@@H]2CC[C@H]2CN2C[C@@]3(CCCc4cc(Cl)ccc43)COc3ccc(cc32)C(=O)NS(=O)(=O)N1` (single isomer, unassigned) [Example 686], for which the figures for the IC50 in assay [1] and in assay [2] were 0.597 nM and 993 nM, respectively.

Take `CO[C@H]1/C=C/C[C@H](C)[C@@H](CC(F)(F)F)S(=O)(=O)NC(=O)c2ccc3c(c2)N(C[C@@H]2CC[C@H]21)C[C@@]1(CCCc2cc(Cl)ccc21)CO3` (single isomer, unassigned) [Example 689]: the values for the IC50 in assay [1] and in assay [2] were 2.53 nM and 836 nM, respectively.

For `O=C1NS(=O)(=O)[C@H](c2ccccn2)CC/C=C/[C@H](O)[C@@H]2CC[C@H]2CN2C[C@@]3(CCCc4cc(Cl)ccc43)COc3ccc1cc32` (single isomer, unassigned) [Example 692], the IC50 in assay [1] amounted to 0.6 nM; in assay [2], 1520 nM.

As to `O=C1NS(=O)(=O)[C@H](c2ccccn2)CC/C=C/[C@H](O)[C@@H]2CC[C@H]2CN2C[C@@]3(CCCc4cc(Cl)ccc43)COc3ccc1cc32` (single isomer, unassigned) [Example 693], the figures for the IC50 in assay [1] and in assay [2] were 0.235 nM and 742 nM, respectively.

Regarding `O=C1NS(=O)(=O)C[C@@H]2C[C@@H]2/C=C/[C@H](O)[C@@H]2CC[C@H]2CN2C[C@@]3(CCCc4cc(Cl)ccc43)COc3ccc1cc32` (single isomer, unassigned) [Example 784], the IC50 was found to be 2.69 nM in assay [1] and 14200 nM in assay [2].

As to `O=C1NS(=O)(=O)C[C@@H]2C[C@@H]2/C=C/[C@H](O)[C@@H]2CC[C@H]2CN2C[C@@]3(CCCc4cc(Cl)ccc43)COc3ccc1cc32` (single isomer, unassigned) [Example 785], the figures for the IC50 in assay [1] and in assay [2] were 3.02 nM and 16000 nM, respectively.

Regarding `COCCO[C@H]1/C=C/C[C@@H]2C[C@H]2S(=O)(=O)NC(=O)c2ccc3c(c2)N(C[C@@H]2CC[C@H]21)C[C@@]1(CCCc2cc(Cl)ccc21)CO3` (single isomer, unassigned) [Example 786], the figures for the IC50 in assay [1] and in assay [2] were 1.03 nM and 1480 nM, respectively.

Take `O=C1NS(=O)(=O)C2CC2CC=CC(O)C2CCC2CN2CC3(CCCc4cc(Cl)ccc43)COc3ccc1cc32` (single isomer, unassigned) [Example 793]: the IC50 amounted to 0.44 nM in assay [1] and 536 nM in assay [2].

Take `O=C1NS(=O)(=O)C2CC2CC=CC(O)C2CCC2CN2CC3(CCCc4cc(Cl)ccc43)COc3ccc1cc32` (single isomer, unassigned) [Example 796]: the IC50 in assay [1] stood at 0.45 nM; in assay [2], 195 nM.

In the case of `CO[C@H]1/C=C/C[C@@H]2C[C@H]2S(=O)(=O)NC(=O)c2ccc3c(c2)N(C[C@@H]2CC[C@H]21)C[C@@]1(CCCc2cc(Cl)ccc21)CO3` (single isomer, unassigned) [Example 803], the IC50 in assay [1] is 1.06 nM; in assay [2], 804 nM.
